Measurements reported in US4435583A, “2-Halo-substituted monic acid A useful as antibacterial compounds” (Beecham Group p.l.c., priority 1981, dated 1984).
In brackets after ≈: the same amount, converted by molar mass.

Legend:
Assay type in all cases: cell-based
M. pneumoniae ATCC 15492 = assay: In vitro anti-mycoplasmal MIC; settings: Mycoplasmoides pneumoniae, ATCC15492, 144 h, Friis broth, 0.9% agarose, 6 days, 37° C., read-out: MIC
Past. multocida 1633 = assay: MIC against human bacteria; settings: nutrient agar, 5% chocolated horse blood, 18 hours, 37° C.
Description: (§1) The values were determined by serial dilutions in nutrient agar with 5% chocolated horse blood after incubations for 18 hours at 37° C.

Staph. aureus Russell = assay: MIC against human bacteria; settings: nutrient agar, 5% chocolated horse blood, 18 hours, 37° C.
Description: as §1

Strep. 641848-C = assay: MIC against human bacteria; settings: nutrient agar, 5% chocolated horse blood, 18 hours, 37° C.
Description: as §1

[1] = system: Ps. aeruginosa NCTC 10662; assay: MIC against human bacteria; settings: Pseudomonas aeruginosa, NCTC10662, nutrient agar, 5% chocolated horse blood, 18 hours, 37° C., read-out: MIC
Description: as §1

P. mirabilis 889 = assay: MIC against human bacteria; settings: Proteus mirabilis, nutrient agar, 5% chocolated horse blood, 18 hours, 37° C., read-out: MIC
Description: as §1

[2] = system: Strep. pyrogenes R80/421-A; assay: MIC against human bacteria; settings: nutrient agar, 5% chocolated horse blood, 18 hours, 37° C.
Description: as §1

Strep. pneumoniae CN33 = assay: MIC against human bacteria; settings: nutrient agar, 5% chocolated horse blood, 18 hours, 37° C.
Description: as §1

Staph. aureus Oxford = assay: MIC against human bacteria; settings: nutrient agar, 5% chocolated horse blood, 18 hours, 37° C.
Description: as §1

Sarcina lutea 8340 = assay: MIC against human bacteria; settings: Micrococcus luteus, nutrient agar, 5% chocolated horse blood, 18 hours, 37° C., read-out: MIC
Description: as §1

[3] = system: Neisseria catarrhalis 1502; assay: MIC against human bacteria; settings: nutrient agar, 5% chocolated horse blood, 18 hours, 37° C.
Description: as §1

Bacillus subtilis 6633 = assay: MIC against human bacteria; settings: nutrient agar, 5% chocolated horse blood, 18 hours, 37° C.
Description: as §1

Strep. 2788-B = assay: MIC against human bacteria; settings: nutrient agar, 5% chocolated horse blood, 18 hours, 37° C.
Description: as §1

E. coli NCTC 10418 = assay: MIC against human bacteria; settings: Escherichia coli, NCTC10418, nutrient agar, 5% chocolated horse blood, 18 hours, 37° C., read-out: MIC
Description: as §1

E. coli ESS = assay: MIC against human bacteria; settings: nutrient agar, 5% chocolated horse blood, 18 hours, 37° C.
Description: as §1

K. aerogenes A = assay: MIC against human bacteria; settings: Klebsiella aerogenes, nutrient agar, 5% chocolated horse blood, 18 hours, 37° C., read-out: MIC
Description: as §1

[4] = system: Corynebacterium xerosis 9755; assay: MIC against human bacteria; settings: nutrient agar, 5% chocolated horse blood, 18 hours, 37° C., read-out: MIC
Description: as §1

[5] = system: Haemophilus influenzae Wy21; assay: MIC against human bacteria; settings: Haemophilus influenzae, WY21, 18 h, nutrient agar, 5% chocolated horse blood, 37° C.
Description: as §1

[6] = system: M. suipneumoniae ATCC 25095; assay: In vitro anti-mycoplasmal MIC; settings: Friis broth, 0.9% agarose, 6 days, 37° C.

Structure (SMILES): CCOC(=O)C(F)=C(C)CC1OCC(CC2OC2C(C)C(C)O)C(O)C1O [Example 1, Ethyl-4-[5S-(2S,3S-epoxy-5S-hydroxy-4S-methylhexyl)-3R, 4R-dihydroxytetrahydropyran-2S-yl]-2-fluoro-3-methylbut-2(Z)-enoate]
- MIC (M. pneumoniae ATCC 15492): 5 µg/mL (≈ 12.8 µM)
- MIC (Past. multocida 1633): 1.0 µg/mL (≈ 2.56 µM)
- MIC (Staph. aureus Russell): 1.0 µg/mL (≈ 2.56 µM)
- MIC (Strep. 641848-C): 5.0 µg/mL (≈ 12.8 µM)
- MIC [1]: > 100 µg/mL
- MIC (P. mirabilis 889): > 100 µg/mL
- MIC [2]: 1.0 µg/mL (≈ 2.56 µM)
- MIC (Strep. pneumoniae CN33): 2.5 µg/mL (≈ 6.4 µM)
- MIC (Staph. aureus Oxford): 1.0 µg/mL (≈ 2.56 µM)
- MIC (Sarcina lutea 8340): > 100 µg/mL
- MIC [3]: 0.5 µg/mL (≈ 1.28 µM)
- MIC (Bacillus subtilis 6633): 2.5 µg/mL (≈ 6.4 µM)
- MIC (Strep. 2788-B): 10.0 µg/mL (≈ 25.6 µM)
- MIC (E. coli NCTC 10418): > 100 µg/mL
- MIC (E. coli ESS): 5.0 µg/mL (≈ 12.8 µM)
- MIC (K. aerogenes A): > 100 µg/mL
- MIC [4]: > 100 µg/mL
- MIC [5]: 0.25 µg/mL (≈ 0.64 µM)
- MIC [6]: 0.5 µg/mL (≈ 1.28 µM)
